# Test results: patent publication US20150105252A1, “SUBSTITUTED PYRAZOLES AS HERBICIDES” (E I DU PONT DE NEMOURS AND COMPANY, priority 2013, published 2015)
# Experiments:
# [1] = test system: crabgrass, large; assay: Test A preemergence; format: in vivo, Digitaria sanguinalis; conditions: 0 to 100 scale
# Procedure, shortened: (§1)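 Ratings express plant response from 0 (no effect) to 100 (complete control), judged visually against untreated controls after approximately 10 days in the greenhouse. Preemergence applications were made as directed soil sprays onto seeded loam–sand mix, and postemergence applications onto 2–10 cm plants at one- to two-leaf stage.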
# [2] = test system: ducksalad; assay: Test B flood; format: in vivo, Heteranthera limosa; conditions: 250 g ai/ha, visual rating on 0 to 100 scale (0 no effect, 100 complete control), 13 to 15 days
# Procedure, shortened: (§2)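 Each compound is applied to the floodwater of pots holding 2-leaf seedlings, water standing 3 cm over the soil throughout. Plants stay in a greenhouse 13 to 15 days before visual scoring against controls from 0 (no effect) to 100 (complete control).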
# [3] = test system: morningglory; assay: Test C postemergence; format: in vivo, Ipomoea coccinea; conditions: for Morningglory plant response rating: scale 0 to 100
# Source text: Seeds of plant species selected from blackgrass (Alopecurus myosuroides), ryegrass, Italian (Italian ryegrass, Lolium multiflorum), wheat (winter wheat, Triticum aestivum), galium (catchweed bedstraw, Galium aparine), corn (Zea mays), crabgrass, large (large crabgrass, Digitaria sanguinalis), foxtail, giant (giant foxtail, Setaria faberii), johnsongrass (Sorghum halepense), lambsquarters (Chenopodium album), morningglory (Ipomoea coccinea), nutsedge, yellow (yellow nutsedge, Cyperus esculentus), pigweed (redroot pigweed, Amaranthus retroflexus), ragweed (common ragweed, Ambrosia elation), soybean (Glycine max), barnyardgrass (Echinochloa crus-galli), oilseed rape (Brassica napus), waterhemp (common waterhemp, Amaranthus rudis), oat, wild (wild oat, Avena fatua), kochia (Kochia scoparia), Surinam grass (Brachiaria decumbens), foxtail, green (green foxtail, Setaria viridis), goosegrass (Eleusine indica), bromegrass, downy (downy bromegrass, Bromus tectorum), nightshade (eastern black nightshade, Solanum ptycanthum), cocklebur (common cocklebur, Xanthium strumarium), cupgrass, woolly (woolly cupgrass, Eriochloa villosa), bermudagrass (Cynodon dactylon), sunflower, (common oilseed sunflower, Helianthus annuus), Russian thistle (Salsola kali), and velvetleaf (Abutilon theophrasti) were planted into a blend of loam soil and sand and treated preemergence with test chemicals formulated in a non-phytotoxic solvent mixture which included a surfactant.
# At the same time, plants selected from these crop and weed species and also chickweed (common chickweed, Stellaria media), canarygrass (littleseed canarygrass, Phalaris minor), and deadnettle (henbit deadnettle, Lamium amplexicaule), were planted in pots containing Redi-Earth® planting medium (Scotts Company, 14111 Scottslawn Road, Marysville, Ohio 43041) comprising spaghnum peat moss, vermiculite, wetting agent and starter nutrients and treated with postemergence applications of test chemicals formulated in the same manner. Plants ranged in height from 2 to 18 cm (1- to 4-leaf stage) for postemergence treatments. Treated plants and controls were maintained in a greenhouse for 13 to 15 days, after which time all species were compared to controls and visually evaluated. Plant response ratings, summarized in Table C, are based on a scale of 0 to 100 where 0 is no effect and 100 is complete control. A dash (-) response means no test result.
# [4] = test system: sedge, umbrella; assay: Test B flood; format: in vivo, Cyperus difformis; conditions: 250 g ai/ha, visual rating on 0 to 100 scale (0 no effect, 100 complete control), 13 to 15 days
# Procedure, shortened: as §2
# [5] = test system: corn; assay: Test C postemergence; format: in vivo, Zea mays; conditions: for Corn plant response rating: scale 0 to 100; for Plant response rating, Corn: 125 g ai/ha, scale 0 to 100, 0 no effect, 100 complete control
# Procedure, shortened: (§3)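 Visual rating, 0–100 scale (0 no effect, 100 complete control), vs untreated controls after 13–15 d greenhouse. Pre: seeds in loam/sand, treated at sowing. Post: plants in peat-based mix, 1- to 4-leaf (2–18 cm). Solvent + surfactant formulation, non-phytotoxic.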
# [6] = test system: foxtail, giant; assay: Test A postemergence; format: in vivo, Setaria faberii
# Procedure, shortened: as §1
# [7] = test system: galium; assay: Test C postemergence; format: in vivo, Galium aparine; conditions: for Galium plant response rating: scale 0 to 100
# Procedure, shortened: as §3
# [8] = test system: barnyardgrass; assay: Test B flood; format: in vivo, Echinochloa crus-galli; conditions: 250 g ai/ha, visual rating on 0 to 100 scale (0 no effect, 100 complete control), 13 to 15 days
# Procedure, shortened: as §2
# [9] = test system: ragweed; assay: Test C postemergence; format: in vivo, Ambrosia elation; conditions: for Ragweed plant response rating / Plant response rating, Ragweed: postemergence; for Ragweed plant response rating: 62 g ai/ha, scale 0 to 100
# Procedure, shortened: as §3
# [10] = test system: velvetleaf; assay: Test A preemergence; format: in vivo, Abutilon theophrasti; conditions: 0 to 100 scale
# Procedure, shortened: as §1
# [11] = test system: waterhemp; assay: Test C postemergence; format: in vivo, Amaranthus rudis; conditions: for Waterhemp plant response rating / Plant response rating, Waterhemp: postemergence; for Waterhemp plant response rating: 62 g ai/ha, scale 0 to 100
# Procedure, shortened: as §3
# [12] = test system: morningglory; assay: Test A preemergence; format: in vivo, Ipomoea spp.; conditions: 0 to 100 scale
# Procedure, shortened: as §1
# [13] = test system: pigweed; assay: Test C postemergence; format: in vivo, Amaranthus retroflexus; conditions: for Pigweed plant response rating: scale 0 to 100
# Procedure, shortened: as §3
# [14] = test system: corn; assay: Test A preemergence; format: in vivo, Zea mays; conditions: 0 to 100 scale
# Procedure, shortened: as §1
# [15] = Preemergence, 500 g ai/ha, 0 no effect, 100 complete control
# [16] = preemergence, 125 g ai/ha, visual injury, approx. 10 days
# [17] = postemergence, 125 g ai/ha, scale 0 to 100, 0 no effect, 100 complete control
# [18] = Postemergence, 500 g ai/ha, visual rating after approx. 10 days, 0 to 100 scale (0 no effect, 100 complete control)
# [19] = postemergence, 125 g ai/ha, about 10 days, visual rating on 0 to 100 scale (0 no effect, 100 complete control)
# [20] = 125 g ai/ha, scale 0 to 100, 0 no effect, 100 complete control
# [21] = Postemergence, 31 g ai/ha, visually evaluated after 13 to 15 days
# [22] = postemergence, 250 g ai/ha, scale 0 to 100 (0 no effect, 100 complete control)
# [23] = 250 g ai/ha, scale 0 to 100 (0 no effect, 100 complete control)
SMILES,"Crabgrass, Large plant response rating [1, 15]","Crabgrass, Large plant response rating [1, 16]","Plant response rating, Ducksalad [2]","Morningglory plant response rating ([3]; postemergence, 62 g ai/ha)","Plant response rating, Morningglory [3, 17]","Plant response rating, Sedge, Umbrella [4]","Corn plant response rating ([5]; postemergence, 62 g ai/ha)","Plant response rating, Corn ([5]; postemergence)","Foxtail, Giant plant response rating [6, 18]","Foxtail, Giant plant response rating [6, 19]","Galium plant response rating ([7]; postemergence, 62 g ai/ha)","Plant response rating, Galium [7, 17]","Plant response rating, Barnyardgrass [8]",Ragweed plant response rating [9],"Plant response rating, Ragweed [9, 20]","Velvetleaf plant response rating [10, 15]","Velvetleaf plant response rating [10, 16]",Waterhemp plant response rating [11],"Plant response rating, Waterhemp [11, 20]","Morningglory plant response rating [12, 15]",also measured
CCCNC(=O)c1cc(CC)n(Cc2ccnc(C(F)(F)F)c2)n1 [Compound 75],100,100,85,80,98,85,20,40,100,90,60,65,40,70,85,100,80,45,75,90,"Plant response rating (scale of 0 to 100), Morningglory ([3]; Postemergence, 16 g ai/ha): 25; Morningglory plant response rating ([3]; Postemergence, 31 g ai/ha): 75; Plant response rating (scale of 0 to 100), Corn ([5]; Postemergence, 16 g ai/ha): 0; Corn plant response rating ([5]; Postemergence, 31 g ai/ha): 5; Plant response rating (scale of 0 to 100), Galium ([7]; Postemergence, 16 g ai/ha): 50; Galium plant response rating ([7]; Postemergence, 31 g ai/ha): 60; Plant response rating (scale of 0 to 100), Ragweed ([9]; Postemergence, 16 g ai/ha): 40; Morningglory plant response rating [12, 16]: 90; Plant response rating (scale of 0 to 100), Pigweed ([13]; Postemergence, 16 g ai/ha): 40; Pigweed plant response rating ([13]; Postemergence, 31 g ai/ha): 40; Pigweed plant response rating ([13]; postemergence, 62 g ai/ha): 60; Plant response rating, Pigweed [13, 17]: 80; Corn plant response rating [14, 15]: 90; Corn plant response rating [14, 16]: 80"
CCc1cc(C(=O)NC2CC2)nn1Cc1ccnc(C(F)(F)F)c1 [Compound 76],100,90,85,75,85,80,10,20,100,80,75,90,20,75,75,60,20,70,75,100,"Plant response rating (scale of 0 to 100 where 0 is no effect and 100 is complete control), Morningglory [3, 21]: 75; Plant response rating, Morningglory [3, 22]: 98; Plant response rating (scale of 0 to 100 where 0 is no effect and 100 is complete control), Corn [5, 21]: 5; Plant response rating (scale of 0 to 100 where 0 is no effect and 100 is complete control), Galium [7, 21]: 70; Plant response rating, Galium [7, 22]: 90; Plant response rating (scale of 0 to 100 where 0 is no effect and 100 is complete control), Ragweed [9, 21]: 55; Plant response rating, Ragweed [9, 23]: 90; Plant response rating (scale of 0 to 100 where 0 is no effect and 100 is complete control), Waterhemp [11, 21]: 60; Plant response rating, Waterhemp [11, 23]: 100; Morningglory plant response rating [12, 16]: 70; Plant response rating (scale of 0 to 100 where 0 is no effect and 100 is complete control), Pigweed [13, 21]: 60; Pigweed plant response rating ([13]; postemergence, 62 g ai/ha): 60; Plant response rating, Pigweed [13, 22]: 98; Plant response rating, Pigweed [13, 17]: 90; Corn plant response rating [14, 15]: 80; Corn plant response rating [14, 16]: 50"
